Experimental data from publication PMC5748027, “Computer-aided design of multi-target ligands at A1R, A2AR and PDE10A, key proteins in neurodegenerative diseases” (Journal of Cheminformatics, 2017).

Tests used:
human PDE10A = molecular target: T1, human PDE10A (Homo sapiens, UniProt Q9Y233); assay: Phosphodiesterase activity, AD293 cells transiently transfected with human PDE10A; assay type: biochemical; conditions: for inhibition at 10 µM: read-out: % inhibition at 10 μM (PDE10A), 10 μM compound; for IC50: mean of 3 experiments in duplicate
T1 construct: expressed in transfected cells; host or cells: AD293 (transient transfection)
Protocol: (§1) Bioactivity testing was performed using A1 and A2A human adenosine receptors expressed in transfected CHO (A1) and HeLa (A2A) cells, as well as AD293 cells that were transiently transfected with human PDE10A. Table 1 includes the list of synthesized 4,6-substituted 2-amino-pyridin-3-carbonitriles, along with their Ki values against A1R, A2AR, and IC50 values against PDE10A.
(§2) The activity measurements against the phosphodiesterases PDE7A, PDE7B, PDE9A and PDE10A were performed using AD293 cells that were transiently and separately transfected with human PDE7A, PDE7B, PDE9A, and PDE10A following the procedure described by Shipe et al..

[1] = molecular target: T2, A2A human adenosine receptor (A2AR) (Homo sapiens, UniProt P29274); assay: Radioligand binding competition assay, human A2A receptor in transfected HeLa cells; conditions: for Ki: Cheng-Prusoff approximation; for % displacement at 0.1 μM (A2AR): 0.1 µM compound
T2 construct: expressed in transfected cells; host or cells: HeLa
Protocol: as §1
(§3) Pharmacological evaluation was performed in a radioligand binding competition assay, using A1, A2A, A2B, and A3 human receptors expressed in transfected CHO (A1), HeLa (A2A and A3), and HEK-293 (A2B) according to the procedure reported by Bosch et al..

human PDE7B = molecular target: T3, human PDE7B (Homo sapiens, UniProt Q9NP56); assay: Phosphodiesterase activity, AD293 cells transiently transfected with human PDE7B; assay type: biochemical; conditions: for inhibition at 10 µM: 10 µM compound, read-out: Percentage inhibition at 10µM (PDE7B)
T3 construct: expressed in transfected cells; host or cells: AD293 (transient transfection)
Protocol: as §2

human PDE9A = molecular target: T4, human PDE9A (Homo sapiens, UniProt O76083); assay: Phosphodiesterase activity, AD293 cells transiently transfected with human PDE9A; assay type: biochemical; conditions: 10 µM compound; read-out: Percentage inhibition at 10µM (PDE9A)
T4 construct: expressed in transfected cells; host or cells: AD293 (transient transfection)
Protocol: as §2

[2] = molecular target: T5, A1 human adenosine receptor (A1R) (Homo sapiens, UniProt P30542); assay: Radioligand binding competition assay, human A1 receptor in transfected CHO cells; conditions: for inhibition at 0.1 µM: 0.1 µM compound, read-out: % displacement at 0.1 μM (A1R); for Ki: Cheng-Prusoff approximation
T5 construct: expressed in transfected cells; host or cells: CHO
T5 sequence (P30542 1-326): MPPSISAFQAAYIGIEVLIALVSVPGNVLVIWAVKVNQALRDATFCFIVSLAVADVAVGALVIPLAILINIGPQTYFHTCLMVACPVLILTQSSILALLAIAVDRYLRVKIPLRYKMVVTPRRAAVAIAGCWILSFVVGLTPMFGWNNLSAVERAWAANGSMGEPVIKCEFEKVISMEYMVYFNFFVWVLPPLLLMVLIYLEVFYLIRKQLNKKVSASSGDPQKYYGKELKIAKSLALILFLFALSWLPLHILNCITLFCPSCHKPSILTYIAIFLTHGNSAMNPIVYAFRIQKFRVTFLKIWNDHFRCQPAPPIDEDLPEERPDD
Protocol: Pharmacological evaluation was performed in a radioligand binding competition assay, using A1, A2A, A2B, and A3 human receptors expressed in transfected CHO (A1), HeLa (A2A and A3), and HEK-293 (A2B) according to the procedure reported by Bosch et al. [78].

A3 human receptor (A3R) = molecular target: T6, A3 human receptor (A3R) (Homo sapiens, UniProt P0DMS8); assay: Radioligand binding competition assay, human A3 receptor in transfected HeLa cells; conditions: 0.1 µM compound; read-out: percentage displacement at 0.1µM (A3R)
T6 construct: expressed in transfected cells; host or cells: HeLa
T6 sequence (P0DMS8 1-318): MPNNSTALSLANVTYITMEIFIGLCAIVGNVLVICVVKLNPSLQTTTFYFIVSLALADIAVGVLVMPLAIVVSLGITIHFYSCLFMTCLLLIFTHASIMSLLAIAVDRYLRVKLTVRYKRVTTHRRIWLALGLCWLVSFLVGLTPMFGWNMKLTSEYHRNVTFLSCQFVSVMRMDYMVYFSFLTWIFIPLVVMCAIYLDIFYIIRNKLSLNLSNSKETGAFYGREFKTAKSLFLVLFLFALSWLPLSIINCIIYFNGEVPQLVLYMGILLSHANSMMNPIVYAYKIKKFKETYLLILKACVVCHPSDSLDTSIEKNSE
Protocol: as §3

human PDE7A = molecular target: T7, human PDE7A (Homo sapiens, UniProt Q13946); assay: Phosphodiesterase activity, AD293 cells transiently transfected with human PDE7A; assay type: biochemical; conditions: for inhibition at 10 µM: 10 µM compound, read-out: Percentage inhibition at 10µM (PDE7A)
T7 construct: expressed in transfected cells; host or cells: AD293 (transient transfection)
Protocol: as §2

[3] = molecular target: T8, A2B human receptor (A2BR) (Homo sapiens, UniProt P29275); assay: Radioligand binding competition assay, human A2B receptor in transfected HEK-293 cells; conditions: 0.1 µM compound; read-out: percentage displacement at 0.1µM (A2BR)
T8 construct: expressed in transfected cells; host or cells: HEK-293
T8 sequence (P29275 1-332): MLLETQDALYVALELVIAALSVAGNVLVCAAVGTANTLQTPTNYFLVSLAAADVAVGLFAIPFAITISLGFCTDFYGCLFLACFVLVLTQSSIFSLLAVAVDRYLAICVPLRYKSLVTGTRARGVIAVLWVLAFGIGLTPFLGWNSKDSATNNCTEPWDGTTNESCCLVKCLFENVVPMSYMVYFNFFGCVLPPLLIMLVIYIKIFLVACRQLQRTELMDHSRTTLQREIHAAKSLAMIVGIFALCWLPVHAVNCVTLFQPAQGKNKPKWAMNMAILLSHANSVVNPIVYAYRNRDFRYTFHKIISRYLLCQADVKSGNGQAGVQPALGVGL
Protocol: as §3

T3 sequence (Q9NP56 whole entry): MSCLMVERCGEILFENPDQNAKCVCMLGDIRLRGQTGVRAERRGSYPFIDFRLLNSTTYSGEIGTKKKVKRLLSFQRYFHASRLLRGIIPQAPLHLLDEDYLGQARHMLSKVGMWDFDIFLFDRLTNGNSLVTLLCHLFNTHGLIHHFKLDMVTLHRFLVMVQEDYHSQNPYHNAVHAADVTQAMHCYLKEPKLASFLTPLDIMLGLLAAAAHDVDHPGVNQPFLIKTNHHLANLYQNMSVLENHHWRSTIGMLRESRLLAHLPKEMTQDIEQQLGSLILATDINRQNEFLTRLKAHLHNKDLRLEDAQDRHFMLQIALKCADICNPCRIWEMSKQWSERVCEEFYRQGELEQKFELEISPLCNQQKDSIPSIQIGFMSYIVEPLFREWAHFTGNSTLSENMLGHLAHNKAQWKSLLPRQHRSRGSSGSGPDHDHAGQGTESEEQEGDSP
T4 sequence (O76083 whole entry): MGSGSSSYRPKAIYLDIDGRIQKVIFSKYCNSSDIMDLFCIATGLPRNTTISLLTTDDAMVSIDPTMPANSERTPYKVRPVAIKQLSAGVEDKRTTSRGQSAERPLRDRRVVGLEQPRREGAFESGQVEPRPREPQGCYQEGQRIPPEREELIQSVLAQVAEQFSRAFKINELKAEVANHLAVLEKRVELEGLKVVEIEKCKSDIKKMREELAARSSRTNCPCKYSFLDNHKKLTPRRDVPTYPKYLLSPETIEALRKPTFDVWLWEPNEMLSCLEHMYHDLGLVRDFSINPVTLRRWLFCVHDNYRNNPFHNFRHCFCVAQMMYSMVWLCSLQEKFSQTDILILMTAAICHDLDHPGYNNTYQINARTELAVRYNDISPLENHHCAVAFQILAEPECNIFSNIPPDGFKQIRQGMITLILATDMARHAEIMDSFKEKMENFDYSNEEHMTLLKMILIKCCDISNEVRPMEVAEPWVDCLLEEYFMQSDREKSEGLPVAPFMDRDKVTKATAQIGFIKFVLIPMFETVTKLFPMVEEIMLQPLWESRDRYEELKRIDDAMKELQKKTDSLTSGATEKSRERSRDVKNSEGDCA
T7 sequence (Q13946 whole entry): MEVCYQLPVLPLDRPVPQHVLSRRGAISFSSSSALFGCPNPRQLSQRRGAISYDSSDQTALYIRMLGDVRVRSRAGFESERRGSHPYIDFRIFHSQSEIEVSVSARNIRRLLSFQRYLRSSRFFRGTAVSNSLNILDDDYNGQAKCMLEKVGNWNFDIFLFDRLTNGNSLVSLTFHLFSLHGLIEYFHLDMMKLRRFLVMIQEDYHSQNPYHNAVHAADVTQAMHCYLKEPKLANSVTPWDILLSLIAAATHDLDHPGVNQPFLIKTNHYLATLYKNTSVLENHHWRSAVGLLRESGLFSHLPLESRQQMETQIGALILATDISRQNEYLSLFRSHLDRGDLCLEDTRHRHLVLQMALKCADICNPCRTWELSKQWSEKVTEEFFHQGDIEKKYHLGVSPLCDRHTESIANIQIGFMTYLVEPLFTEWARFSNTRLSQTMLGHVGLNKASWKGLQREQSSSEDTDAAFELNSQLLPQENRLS
T1 sequence (Q9Y233 267-1055 limits assumed): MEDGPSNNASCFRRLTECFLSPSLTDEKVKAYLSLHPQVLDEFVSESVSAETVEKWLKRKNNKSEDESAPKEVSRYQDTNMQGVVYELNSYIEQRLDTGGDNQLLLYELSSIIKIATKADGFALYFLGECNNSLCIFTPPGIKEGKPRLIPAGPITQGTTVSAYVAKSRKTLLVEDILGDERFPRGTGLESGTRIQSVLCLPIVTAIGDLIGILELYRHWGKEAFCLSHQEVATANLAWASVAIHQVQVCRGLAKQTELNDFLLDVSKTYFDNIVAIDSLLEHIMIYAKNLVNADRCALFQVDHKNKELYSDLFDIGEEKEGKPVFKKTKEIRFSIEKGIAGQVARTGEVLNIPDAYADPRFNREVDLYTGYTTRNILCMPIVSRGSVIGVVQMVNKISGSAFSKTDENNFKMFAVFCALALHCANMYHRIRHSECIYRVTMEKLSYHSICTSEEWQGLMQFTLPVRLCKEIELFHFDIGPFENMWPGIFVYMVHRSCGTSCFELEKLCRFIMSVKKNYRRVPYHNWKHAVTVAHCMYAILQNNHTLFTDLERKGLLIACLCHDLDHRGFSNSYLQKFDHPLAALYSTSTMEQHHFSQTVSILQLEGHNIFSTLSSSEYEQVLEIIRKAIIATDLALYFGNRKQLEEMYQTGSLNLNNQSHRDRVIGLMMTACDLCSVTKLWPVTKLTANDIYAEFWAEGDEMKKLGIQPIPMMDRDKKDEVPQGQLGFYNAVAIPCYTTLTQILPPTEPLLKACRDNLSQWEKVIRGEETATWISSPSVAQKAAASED
T2 sequence (P29274 whole entry): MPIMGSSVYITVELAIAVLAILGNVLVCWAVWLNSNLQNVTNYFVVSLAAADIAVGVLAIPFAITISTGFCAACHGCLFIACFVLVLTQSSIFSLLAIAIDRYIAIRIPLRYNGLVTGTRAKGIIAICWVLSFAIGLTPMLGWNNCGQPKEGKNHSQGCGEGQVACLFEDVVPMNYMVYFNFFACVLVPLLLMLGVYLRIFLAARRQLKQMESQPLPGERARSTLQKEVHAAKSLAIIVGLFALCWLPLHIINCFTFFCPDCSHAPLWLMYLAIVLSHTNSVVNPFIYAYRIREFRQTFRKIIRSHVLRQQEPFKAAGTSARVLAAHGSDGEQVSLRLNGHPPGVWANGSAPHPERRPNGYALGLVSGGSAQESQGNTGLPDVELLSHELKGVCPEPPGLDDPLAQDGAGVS

| Compound | inhibition at 10 µM (human PDE10A) [%] | melting point [°C] | Ki [1] [µM] | inhibition at 10 µM (human PDE7B) [%] | inhibition at 10 µM (human PDE9A) [%] | inhibition at 0.1 µM [2] [%] | inhibition at 0.1 µM (A3 human receptor (A3R)) [%] | inhibition at 10 µM (human PDE7A) [%] | inhibition at 0.1 µM [3] [%] | IC50 (human PDE10A) [µM] | % displacement at 0.1 μM (A2AR) [1] [%] | Ki [2] [µM] | IC50 (human PDE7B) [µM] | IC50 (human PDE7A) [µM] | selectivity over all tested off-targets (human PDE10A; PDE10A IC50 versus lowest selectivity at PDE7B (55% inhibition at 10 µM)) |
| --- | --- | --- | --- | --- | --- | --- | --- | --- | --- | --- | --- | --- | --- | --- | --- |
| COc1ccccc1-c1cc(-c2ccccc2F)nc(N)c1C#N [Compound 19, 2-amino-6-(2-fluorophenyl)-4-(2-methoxyphenyl)pyridine-3-carbonitrile] | 73 | 187 to 188 | 0.338 ± 0.012 | 42 | 19 | 58 | 1 | 49 | 2 |  |  |  |  |  |  |
| Cc1ccccc1-c1cc(C2CCCCC2)c(C#N)c(N)n1 [Compound 10, 2-amino-4-cyclohexyl-6-(2-methylphenyl)pyridine-3-carbonitrile] |  | 120 to 121 |  | 35 | 9 | 17 | 28 | 31 | 1 | 3.7 ± 0.3 | 18 |  |  |  |  |
| N#Cc1c(C2CCCCC2)cc(-c2ccccc2F)nc1N [Compound 9, 2-amino-4-cyclohexyl-6-(2-fluorophenyl)pyridine-3-carbonitrile] | 68 | 126 to 127 |  | 34 | 1 |  | 7 | 19 | 2 |  | 34 | 0.084 ± 0.008 |  |  |  |
| N#Cc1c(C2CCCCC2)cc(-c2cccs2)nc1N [Compound 11, 2-amino-4-cyclohexyl-6-(thiophen-2-yl)pyridine-3-carbonitrile] |  | 160 to 162 |  | 45 | 6 | 16 | 26 | 33 | 1 | 1.2 ± 0.1 | 11 |  |  |  |  |
| N#Cc1c(-c2ccccc2Cl)cc(-c2ccc(O)cc2)nc1N [Compound 23, 2-amino-4-(2-chlorophenyl)-6-(4-hydroxyphenyl)pyridine-3-carbonitrile] |  | 215 to 217 |  |  | 25 | 2 | 1 |  | 8 | 4 ± 0.3 | 10 |  | 7.3 | 1.8 |  |
| N#Cc1c(-c2ccccc2F)cc(-c2ccccc2F)nc1N [Compound 18, 2-amino-4,6-bis(2-fluorophenyl)pyridine-3-carbonitrile] | 38 | 180 to 181 | 0.948 ± 0.013 | 36 | 0 |  | 1 | 25 | 1 |  |  | 0.078 ± 0.005 |  |  |  |
| N#Cc1c(C2CCCCC2)cc(-c2ccco2)nc1N [Compound 13, 2-amino-4-cyclohexyl-6-(furan-2-yl)pyridine-3-carbonitrile] | 55 | 177 to 178 | 0.049 ± 0.004 | 41 | 4 |  | 19 | 44 | 3 |  |  | 0.07 ± 0.003 |  |  |  |
| N#Cc1c(C2CCCCC2)cc(-c2ccccc2)nc1N [Compound 8, 2-amino-4-cyclohexyl-6-phenylpyridine-3-carbonitrile] |  | 125 to 126 |  | 55 | 30 |  | 13 | 26 | 1 | 2.4 ± 0.2 | 50 | 0.294 ± 0.01 |  |  | twofold |
| Cn1cccc1-c1cc(-c2ccccc2)c(C#N)c(N)n1 [Compound 4, 2-amino-6-(1-methyl-1H-pyrrol-2-yl)-4-phenylpyridine-3-carbonitrile] |  | 152 to 153 |  | 48 | 2 | 26 | 13 | 50 | 5 | 3.6 ± 0.3 | 32 |  |  |  |  |
